{"source": "patent EP2899264B1", "about": "“EMULSION FOR MICROBIAL GROWTH, METHOD FOR GROWING MICROORGANISMS BY USING SAID EMULSION, AND METHOD FOR PRODUCING MICROBIAL METABOLITE” (Kaneka Corporation, priority 2012, dated 2014)", "origin": "cited, not measured here", "key": {"[1]": {"tested_on": "Ralstonia eutropha (currently classified as Cupriavidus necator)", "details": "sole carbon source"}, "[2]": {"details": "for concentration at which the acid aggregates: in water"}, "Aeromonas hydrophila": {"tested_on": "Aeromonas hydrophila", "details": "sole carbon source"}, "microorganisms": {"tested_on": "microorganisms", "details": "used as emulsifier"}}, "data": [{"compound": "CCCCCCCCCCCCCC(=O)O", "note": "[myristic acid]", "values": [{"measurement": "PHA productivity", "setting": "[1]", "value": "≤ 1", "unit": "g/L"}]}, {"compound": "CCCCCCCCCCCCCCCC(=O)O", "note": "[palmitic acid]", "values": [{"measurement": "concentration at which the acid aggregates", "setting": "[2]", "value": "≤ 1000", "unit": "nM"}]}, {"compound": "CCCCCCCCCCCCCCCCCC(=O)O", "note": "[stearic acid]", "values": [{"measurement": "concentration at which the acid aggregates", "setting": "[2]", "value": "≤ 1000", "unit": "nM"}]}, {"compound": "CCCCCCCCCCCC(=O)O", "note": "[lauric acid]", "values": [{"measurement": "water solubility", "setting": "[2]", "value": "≤ 100", "unit": "µg/mL"}, {"measurement": "dry cell weight", "setting": "Aeromonas hydrophila", "value": "about 8 g/L"}, {"measurement": "PHA productivity", "setting": "[1]", "value": "≤ 1", "unit": "g/L"}]}, {"compound": "CCCCCCCCCCCCOS(=O)(=O)[O-].[Na+]", "note": "[SDS]", "values": [{"measurement": "effect on growth of microorganisms", "setting": "microorganisms", "value": "inhibit growth of microorganisms"}]}, {"compound": "Triton X-100", "values": [{"measurement": "effect on growth of microorganisms", "setting": "microorganisms", "value": "inhibit growth of microorganisms"}]}]}
